According to ChEMBL document CHEMBL4706752 (ACS Med Chem Lett, 2021):
pEC50, pIC50: −log10 of the molar value.

Tests used:
[1] = biological target: T1, Nuclear receptor ROR-gamma (Homo sapiens, UniProt P51449); assay: Inverse agonist activity at human Gal4-fused RORgammat expressed in human Jurkat cells luciferase reporter gene assay; type: cell-based
T1 sequence (P51449 whole entry): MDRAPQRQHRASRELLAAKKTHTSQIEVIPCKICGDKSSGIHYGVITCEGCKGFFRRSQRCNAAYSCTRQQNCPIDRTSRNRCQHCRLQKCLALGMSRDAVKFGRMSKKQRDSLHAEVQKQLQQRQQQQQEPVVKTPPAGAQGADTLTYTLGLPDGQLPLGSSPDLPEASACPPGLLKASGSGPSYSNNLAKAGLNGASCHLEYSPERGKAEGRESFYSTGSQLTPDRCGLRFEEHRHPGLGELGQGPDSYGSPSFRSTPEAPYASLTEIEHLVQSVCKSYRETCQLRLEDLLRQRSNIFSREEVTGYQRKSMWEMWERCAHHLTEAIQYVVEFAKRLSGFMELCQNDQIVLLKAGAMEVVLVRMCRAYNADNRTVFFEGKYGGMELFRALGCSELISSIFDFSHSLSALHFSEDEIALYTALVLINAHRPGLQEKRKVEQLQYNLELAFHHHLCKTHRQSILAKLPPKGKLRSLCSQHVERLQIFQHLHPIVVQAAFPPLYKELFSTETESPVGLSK

[2] = Protein binding in mouse serum assessed as fraction unbound; type: ADME, cell-free; conditions: read-out: PB
[3] = Efflux ratio of apparent permeability across basolateral to apical side over apical to basolateral side in Caco2 cells; type: ADME, cell-based; conditions: human, Caco-2
[4] = biological target: Cytochrome P450 2C9 (Homo sapiens, UniProt P11712); assay: Inhibition of CYP2C9 (unknown origin); type: ADME
Cytochrome P450 2C9, sequence (P11712 whole entry): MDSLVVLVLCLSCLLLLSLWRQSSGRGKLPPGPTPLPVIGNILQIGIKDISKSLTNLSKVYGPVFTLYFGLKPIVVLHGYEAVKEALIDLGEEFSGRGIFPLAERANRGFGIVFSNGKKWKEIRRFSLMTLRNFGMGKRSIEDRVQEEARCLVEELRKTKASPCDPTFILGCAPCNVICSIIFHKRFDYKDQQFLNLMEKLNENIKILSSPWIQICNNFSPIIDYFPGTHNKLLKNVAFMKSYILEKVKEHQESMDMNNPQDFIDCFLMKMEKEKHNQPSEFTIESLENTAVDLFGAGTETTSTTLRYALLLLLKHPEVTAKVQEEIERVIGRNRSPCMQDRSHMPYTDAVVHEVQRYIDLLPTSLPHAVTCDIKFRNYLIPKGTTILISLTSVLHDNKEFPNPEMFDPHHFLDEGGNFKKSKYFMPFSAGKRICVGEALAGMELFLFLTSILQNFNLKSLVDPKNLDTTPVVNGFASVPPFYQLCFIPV

[5] = Metabolic stability in human liver microsomes assessed as compound remaining after 10 mins; type: ADME, Microsome; conditions: read-out: Stabilty
[6] = biological target: Cytochrome P450 3A4 (Homo sapiens, UniProt P08684); assay: Inhibition of CYP3A4 (unknown origin); type: ADME
Cytochrome P450 3A4, sequence (P08684 whole entry): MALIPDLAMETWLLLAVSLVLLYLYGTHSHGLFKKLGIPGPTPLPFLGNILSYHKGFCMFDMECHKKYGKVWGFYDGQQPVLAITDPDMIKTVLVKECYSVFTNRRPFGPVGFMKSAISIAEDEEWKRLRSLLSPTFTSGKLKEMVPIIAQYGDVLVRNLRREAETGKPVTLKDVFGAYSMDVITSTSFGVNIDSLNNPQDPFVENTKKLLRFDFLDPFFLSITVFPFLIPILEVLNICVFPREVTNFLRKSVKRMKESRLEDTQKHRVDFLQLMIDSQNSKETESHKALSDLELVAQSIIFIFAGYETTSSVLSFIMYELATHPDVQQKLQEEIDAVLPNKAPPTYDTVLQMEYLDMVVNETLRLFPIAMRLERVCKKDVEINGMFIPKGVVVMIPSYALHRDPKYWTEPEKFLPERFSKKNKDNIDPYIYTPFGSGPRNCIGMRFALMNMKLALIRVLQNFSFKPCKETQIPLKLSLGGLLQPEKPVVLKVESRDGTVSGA

[7] = biological target: T1, Nuclear receptor ROR-gamma; assay: Inverse agonist activity at RORgammat in human whole blood assessed as inhibition of anti-CD3/anti-CD28 monoclonal antibodies-stimulated IL-17A production measured by ELISA; type: tissue-based
[8] = Metabolic stability in mouse liver microsomes assessed as compound remaining after 10 mins; type: ADME, Microsome; conditions: read-out: Stabilty
[9] = Apparent permeability across apical to basolateral membrane in human Caco2 cells; type: ADME, cell-based; conditions: Caco-2
[10] = biological target: T2, Cytochrome P450 2C8 (Homo sapiens, UniProt P10632); assay: Inhibition of CYP2C8 (unknown origin); type: ADME
T2 sequence (P10632 whole entry): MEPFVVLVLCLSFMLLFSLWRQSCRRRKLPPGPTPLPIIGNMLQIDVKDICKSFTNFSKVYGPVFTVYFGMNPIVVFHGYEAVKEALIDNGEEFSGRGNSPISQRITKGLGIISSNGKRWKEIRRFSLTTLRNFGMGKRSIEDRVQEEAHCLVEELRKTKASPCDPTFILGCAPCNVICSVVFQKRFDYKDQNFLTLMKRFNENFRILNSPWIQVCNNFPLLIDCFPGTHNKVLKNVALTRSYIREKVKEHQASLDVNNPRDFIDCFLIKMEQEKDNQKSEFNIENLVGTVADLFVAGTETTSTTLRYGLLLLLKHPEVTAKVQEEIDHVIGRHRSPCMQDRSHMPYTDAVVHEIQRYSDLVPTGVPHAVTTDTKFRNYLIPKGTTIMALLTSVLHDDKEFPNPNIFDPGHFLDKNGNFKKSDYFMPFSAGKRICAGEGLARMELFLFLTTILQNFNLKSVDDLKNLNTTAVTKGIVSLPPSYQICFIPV

[11] = biological target: Cytochrome P450 2C19 (Homo sapiens, UniProt P33261); assay: Inhibition of CYP2C19 (unknown origin); type: ADME
Cytochrome P450 2C19, sequence (P33261 whole entry): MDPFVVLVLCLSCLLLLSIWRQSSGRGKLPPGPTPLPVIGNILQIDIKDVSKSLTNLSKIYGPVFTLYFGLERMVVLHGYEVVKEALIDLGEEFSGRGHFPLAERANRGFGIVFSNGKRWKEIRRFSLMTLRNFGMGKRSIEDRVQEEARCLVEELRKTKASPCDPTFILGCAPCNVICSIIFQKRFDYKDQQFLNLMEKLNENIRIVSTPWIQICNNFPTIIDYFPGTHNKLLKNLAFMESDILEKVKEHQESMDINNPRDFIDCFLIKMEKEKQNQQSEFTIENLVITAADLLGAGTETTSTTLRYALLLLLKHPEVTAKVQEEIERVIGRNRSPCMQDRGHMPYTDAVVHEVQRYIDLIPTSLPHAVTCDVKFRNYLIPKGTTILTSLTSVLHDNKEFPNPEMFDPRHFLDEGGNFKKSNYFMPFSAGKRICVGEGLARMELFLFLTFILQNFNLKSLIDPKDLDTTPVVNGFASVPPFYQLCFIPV

[12] = Protein binding in human serum assessed as fraction unbound; type: ADME, cell-free; conditions: read-out: PB

SMILES	pEC50 [1]	fraction unbound [2]	efflux ratio [3]	pIC50 [4]	remaining at 10 min [5]	pIC50 [6]	pEC50 [7]	remaining at 10 min [8]	Papp A→B [9]	pIC50 [10]	pIC50 [11]	fraction unbound [12]
N#CCCN1C(=O)CC[C@H]1C(=O)N1CC[C@@]2(S(=O)(=O)c3ccc(F)cc3)c3ncc(C(F)(C(F)(F)F)C(F)(F)F)cc3CC[C@@H]12		0.16			83%	< 4.70		82%	9.4 ×10⁻⁶ cm/s	< 4.70		0.2
O=C(C1CCS(=O)(=O)CC1)N1CC[C@@]2(S(=O)(=O)c3ccc(F)cc3)c3ncc(C(F)(C(F)(F)F)C(F)(F)F)cc3CC[C@@H]12	7.15				100%			96%				
CC(C)(O)C(=O)N[C@@H]1CC[C@@]2(S(=O)(=O)c3ccc(F)cc3)c3ccc(C(F)(C(F)(F)F)C(F)(F)F)nc3CC[C@@H]12	8.41	0.023	0.5	5.49	100%	< 4.70	7.17	100%	18 ×10⁻⁶ cm/s	5.08	< 4.70	
C[C@](O)(CS(C)(=O)=O)C(=O)N[C@@H]1CC[C@@]2(S(=O)(=O)c3ccc(F)cc3)c3ccc(C(F)(C(F)(F)F)C(F)(F)F)nc3CC[C@@H]12					97%			100%				
O=C(C1CCS(=O)(=O)CC1)N1CC[C@@]2(S(=O)(=O)c3ccc(F)cc3)c3ccc(C(F)(C(F)(F)F)C(F)(F)F)nc3CC[C@@H]12		0.05			100%	< 4.70		91%	23 ×10⁻⁶ cm/s	4.80		
O=C(C1CCS(=O)(=O)CC1)N1CC[C@@]2(S(=O)(=O)c3ccc(F)cc3)c3cnc(C(F)(C(F)(F)F)C(F)(F)F)cc3CC[C@@H]12	7.77				92%		7.64	49%				
C[C@](O)(CS(C)(=O)=O)C(=O)N[C@@H]1CC[C@@]2(S(=O)(=O)c3ccc(F)cc3)c3ccc(C(F)(C(F)(F)F)C(F)(F)F)cc3CC[C@@H]12	8.26	0.002	0.9	5.04	89%	< 4.70	6.92	83%	7.6 ×10⁻⁶ cm/s	4.89	4.82	

Continued, values first:

pEC50 [1]	fraction unbound [2]	efflux ratio [3]	pIC50 [4]	remaining at 10 min [5]	pIC50 [6]	pEC50 [7]	remaining at 10 min [8]	Papp A→B [9]	pIC50 [10]	pIC50 [11]	fraction unbound [12]	SMILES
8.08	0.022	2.2	5.02	100%	< 4.70	7.17	82%	8.1 ×10⁻⁶ cm/s	4.80	< 4.70		O=C(N[C@@H]1CC[C@@]2(S(=O)(=O)c3ccc(F)cc3)c3ccc(C(F)(C(F)(F)F)C(F)(F)F)nc3CC[C@@H]12)C1CCS(=O)(=O)CC1
8.60	0.004	0.5	4.92	98%	< 4.70	7.41	84%	6.4 ×10⁻⁶ cm/s	5.30	4.82		C[C@@](O)(CS(C)(=O)=O)C(=O)N[C@@H]1CC[C@@]2(S(=O)(=O)c3ccc(F)cc3)c3ccc(C(F)(C(F)(F)F)C(F)(F)F)cc3CC[C@@H]12
8.06	0.003	0.5	5.26	100%	5.24	7.30	95%	7.3 ×10⁻⁶ cm/s	5.19	< 4.70		O=C(N[C@@H]1CC[C@@]2(S(=O)(=O)c3ccc(F)cc3)c3ccc(C(F)(C(F)(F)F)C(F)(F)F)cc3CC[C@@H]12)C1CCS(=O)(=O)CC1
	0.017			92%	5.00		85%	17 ×10⁻⁶ cm/s	4.89		0.018	N#CCCN1C(=O)CC[C@H]1C(=O)N1CC[C@@]2(S(=O)(=O)c3ccc(F)cc3)c3ccc(C(F)(C(F)(F)F)C(F)(F)F)cc3CC[C@@H]12
	0.068			93%	4.89		100%	13 ×10⁻⁶ cm/s	5.03		0.008	O=C(C1CCS(=O)(=O)CC1)N1CC[C@@]2(S(=O)(=O)c3ccc(F)cc3)c3ccc(C(F)(C(F)(F)F)C(F)(F)F)cc3CC[C@@H]12
	0.068			100%	4.92		69%	12 ×10⁻⁶ cm/s	< 4.70		0.12	N#CCCN1C(=O)CC[C@H]1C(=O)N1CC[C@@]2(S(=O)(=O)c3ccc(F)cc3)c3cnc(C(F)(C(F)(F)F)C(F)(F)F)cc3CC[C@@H]12
	0.006		4.92	97%	4.96		86%	15 ×10⁻⁶ cm/s	4.92	5.11	0.002	CC(C)(O)CC(=O)N[C@@H]1CC[C@@]2(S(=O)(=O)c3ccc(F)cc3)c3ccc(C(F)(C(F)(F)F)C(F)(F)F)cc3CC[C@@H]12
8.22	0.018	0.5	5.07	100%	5.04	7.00	87%	12 ×10⁻⁶ cm/s	5.20	4.80		CC(C)(O)CC(=O)N[C@@H]1CC[C@@]2(S(=O)(=O)c3ccc(F)cc3)c3ccc(C(F)(C(F)(F)F)C(F)(F)F)nc3CC[C@@H]12
7.62	0.051	1.7		100%	4.72	7.51	83%	19 ×10⁻⁶ cm/s	< 4.70		0.071	N#CCCN1C(=O)CC[C@H]1C(=O)N1CC[C@@]2(S(=O)(=O)c3ccc(F)cc3)c3ccc(C(F)(C(F)(F)F)C(F)(F)F)nc3CC[C@@H]12
